Patent publication US20100129831A1, “METHODS FOR DIAGNOSING HYPERSENSITIVITY REACTIONS” (priority 2007, published 2010)

Test system: acute interstitial nephritis
Assay: oral glucocorticoid treatment of acute interstitial nephritis (case report)
Type: in vivo, human
Conditions: 1 mg/kg, creatinine gradually declined
Protocol: Severe acute interstitial nephritis (AIN) was diagnosed based on needle biopsy. Oral glucocorticoid treatment (prednisone 1 mg/kg) was begun and was effective. Creatinine gradually declined over the next 8 weeks (Cr-3.5 mg/dL); glucose levels also declined. Another course of steroids was initiated, after which the creatinine level further declined, stabilizing around a level of 1.8 mg/dL, close to the previous value of 1.4 mg/dL. While investigated as to the etiology of their newly diagnosed AIN, the patient described the use of an alternative medicine hypnotic or sedative OTC, “Region-Laila.” Region's leaflet lists 4 active ingredients: Passiflora incarnata 250 mg, Scutellaria laterifolia 50 mg, Humulus Lupullus 50 mg and Melissa officinalis 25 mg.

C[C@]12C=CC(=O)C=C1CC[C@@H]1[C@@H]2C(=O)C[C@@]2(C)[C@H]1CC[C@]2(O)C(=O)CO [prednisone]
treatment outcome in acute interstitial nephritis: effective
